Common to all, as to assay type: cell-based
The target in assay [1] is T1, ASIC1b (Rattus norvegicus, UniProt P55926).
T1 construct: gene Asic1; homomeric rASIC1b (splice variant) expressed in CHO cells
T1 sequence (P55926 186-526 limits assumed): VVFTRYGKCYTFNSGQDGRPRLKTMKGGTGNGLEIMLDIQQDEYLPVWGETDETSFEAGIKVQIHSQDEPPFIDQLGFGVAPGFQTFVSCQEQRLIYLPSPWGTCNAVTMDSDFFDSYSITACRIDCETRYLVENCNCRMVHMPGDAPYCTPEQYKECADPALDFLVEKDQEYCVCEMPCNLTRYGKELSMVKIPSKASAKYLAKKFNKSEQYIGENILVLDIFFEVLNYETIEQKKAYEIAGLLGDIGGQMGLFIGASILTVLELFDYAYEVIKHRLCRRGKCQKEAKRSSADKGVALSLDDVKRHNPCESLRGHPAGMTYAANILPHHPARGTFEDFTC
As to the kind of experiment: whole-cell patch clamp, CHO cells, activation at pH […].

Assay [2] has as its target T1, ASIC1b. As to the kind of experiment: whole-cell patch clamp, CHO cells, block at […], pH […].
Assay [3] addresses T1, ASIC1b. As to the kind of experiment: whole-cell patch clamp, CHO cells, inhibition at […].

The IC50 is the midpoint of a concentration-inhibition curve. `Nc1c2ccccc2nc2ccccc12` [9AA, 9-aminoacridine]: the IC50 at ASIC1b [1] was 440 ± 20 µM.

As usually defined, the inhibition is how much of the control response was suppressed. Take `N=C(N)NC(=O)c1nc(Cl)c(N)nc1N` [amiloride]: the inhibition at 30 µM at ASIC1b [2] stood at 53 ± 7%. For the compound `CC12CC3CC(C)(C1)CC(N)(C3)C2` [memantine], at ASIC1b [3], the inhibition at 1000 µM came to 44 ± 16%.

(Values after article PMC4463418, “The Effect of Hydrophobic Monoamines on Acid-Sensing Ion Channels ASIC1B” (Acta Naturae, 2015).)
